The source of these data is patent US20240166658A1, “PORPHYRIN DERIVATIVES AND USES THEREOF” (University of Tasmania, priority 2021, published 2024).

Data set [1] can be described thus: UV-Vis host-guest titration, association constant. In kind it is binding. The note with it: short, medium and long chain sensor molecules with PFOA. How it is done: Path length of the quartz cell was 1 cm. For UV-vis titrations, a stock solution of host was prepared (2.2×10^−3 M) in dichloromethane (DCM) and serially diluted to the required concentrations. Working solutions of tetrabutylammonium (TBA) anion salts or guest molecules were prepared in the same manner Host−guest titrations used solutions of guest prepared in the working concentration of host solution, according to the procedure of Thordarson, 2011.
UV-vis spectroscopic host−guest titrations were performed in accordance with the methodologies of Thordarson, 2011. Solutions of host in dichloromethane were prepared. Solutions of guest were then prepared in the host solution. Aliquots of guest in host solution were added to host solution and sequentially analysed until a known molar equivalent of guest was added. The amount of guest added per aliquot was ascertained by a preliminary screening experiment; strong association constants required smaller molar equivalents so more information could be collected. […] The inverse is true for weaker binding interactions. Molar equivalents between 0.1-5 typically provided adequate information for modelling. The data was then used to simulate binding isotherms using www.supramolecular.org (Hibbert and Thordarson, 2016). The data was fitted to 1:1, 1:2 and 2:1 equilibria making no assumptions about the cooperativity of the binding interactions and modelled using different algorithms. These experiments mainly used the Nelder-Mead (Simplex) method.
UV-Vis spectroscopy binding studies were used to determine the association constant for the host (9)−PFOA complex.
A host solution of host (9) in dichloromethane was monitored using UV-Vis analysis as 0.5-10 equivalents of each PFAS was added. […] The data was processed using Bindfit isotherm simulators using both Nelder-Mead and L-BFGS-B methods (Thordarson, 2011).
To highlight any potential binding preferences across the PFCAs from the host molecules, triplicates of host−guest addition titrations were performed using host (9) and the TBA salts of the nine different deprotonated PFCAs.

A short description of data set [2]: PFCA guest response screening (RGB analysis, UV-Vis). How it is done: A Puluz® 20 cm portable light tent with moderate and dispersed white LED lighting was used to photograph samples using an iPhone 6S plus camera on a fixed tripod. The automatic flash settings were disabled so there was no reflective interference on the sample vials. Samples that were being directly compared were photographed together to ensure lighting conditions and settings were consistent. The photographs were analysed using ImageJ software according to the procedure of Gallagher, 2014b. Multiple RGB values were chosen from areas of each sample at random to provide an “average” RGB value (Menesatti et al., 2012; Gallagher, 2014a; Phuangsaijai et al., 2021). Those RGB values were used to produce an artificial colour tile for visual comparison, or parameterized for modelling.
To quantify a colour difference, RGB values were transformed within the CIELab colour space. The difference, expressed as ΔE, was determined by measuring the relative distance between two colours. The numeric ΔE value can be used to predict how the two colours are perceived by a standard observer; a ΔE>2 is considered the minimum value to achieve a “just noticeable difference” (JND) (Table 1), which is the smallest difference required for an untrained observer to be able to determine two colours as being different (Castillo et al., 2021).
(§1) Experiments were performed at concentrations that could be monitored by the naked eye for practical sensing of PFAS in the field. Complexes of hosts (9), (11) and (12) were formed with the nine different perfluorocarboxylic acids (PFCAs) shown in Table 2 above and the colours of each host−PFCA complex were photographed in a lightbox and analysed using ImageJ software RGB analysis. Pixels of the solution were chosen at random to provide an RGB value. Multiple RGB values were recorded for each host−PFCA solution, and an average colour can be produced. From those values an RGB parameter was used to give a response value for modelling (Tahir et al., 2016).
(§2) After preliminary screenings, UV-Vis spectra were collected before and after the addition of 1 molar equivalent of each PFCA for each host, and the degree of complexation was noted by shifts in the Soret bands and formation of a peak at ca. 650 nm. To eliminate dilution effects, PFCA guest solutions were prepared in the equivalent concentration of host. If there was a notable host−guest interaction for a particular PFCA, the host−guest binding was investigated with more rigorous UV-Vis experiments, binding studies, and further colour analyses. Throughout these investigations, PFOA was considered the “average” PFCA both because of its position in the range of PFCA sizes and because its prevalence is often an indication of broader PFAS contamination. In any experiment where binding was further investigated for a particular PFCA, it was typically replicated with PFOA for comparison.

Data set [3] in a line: Colorimetric calibration chart, RGB response to known PFOA concentrations. The following applies: PFOA 0.7 ppm, dichloromethane. As to the method:
The host molecules were combined with known concentrations of PFOA to provide RGB colour responses, which were used to create a colorimetric calibration chart that could be trialled as an indicator for estimating the total concentration of a range of any PFCAs. Solutions of each host molecule (1.00×10^−5 M) were prepared in dichloromethane. Solutions of PFOA in dichloromethane were prepared across a range of concentrations (0→16 ppm, 4.00×10^−5 M). Each host (2 mL) was combined with each PFOA concentration (1 mL, final concentration 0→1.33×10^−5 M) and photographed under equivalent lighting conditions. The average colour of each solution was then found using ImageJ RGB analysis, and a colour chart was produced.
For this reason, parametrization of the RGB values can be useful for interpreting results. The RGB response parameter can be calculated using the RGB values of the “blank” host solution (Šafranko et al., 2019) and the effective intensities of the individual RGB values of a sample (Tahir et al., 2016):
Here, H, indicates the values for the host solution, and S, indicates the response for a sample containing a PFCA, so that ΔR, ΔG, and ΔB give the colour differences. The RGB parameter is the response due to the relative difference in the RGB intensities:
The RGB values collected for each host with a range of known concentrations of PFOA in dichloromethane were parameterized and used to determine a relationship between concentration of analyte and RGB response values. […] The relationship between RGB response values and concentrations of PFOA could now be tested for accuracy in determining the concentration of any PFCA.

Data set [4] can be described thus: PFCA guest response across the nine PFCAs (UV-Vis, RGB, one-way ANOVA variance). The following applies: dichloromethane. How it is done: as §1, §2
One-way factorial ANOVA was used to examine the dependence (or independence) of two or more factors affecting the dependent variable concurrently, in the present case the change in absorption, or the change in RGB response across the tested PFCAs, or across the different hosts. This analysis was used to determine the variance in the responses of each host across the different PFCAs. […]

Data set [5] in a line: 1H NMR titration with GenX in CDCl3. In kind it is binding. The note with it: host 6.85×10^−4 M in CDCl3, 20 μL aliquots of guest.
For data set [6] the following is noted: Rodea-Palomares et al., 2012; cited from earlier work.
The nature of the next data set: Aqueous extraction tests. The following applies: PFOA 5.5 × 10^−4 M in water (~228 ppm), volume 1:1. As to the method: Aqueous solutions of PFOA were prepared and combined with an organic phase of sensor molecule (9) in dichloromethane. Colour change observations at various sensor concentrations are described in Table 12.
A short description of data set [7]: Preliminary binding study of urea linked host, UV-Vis. The note with it: dichloromethane. From the text: However, these colorimetric changes were weaker than that observed with the amide equivalent, likely due to the formation of an insoluble precipitate upon binding. Binding of the urea linked porphyrin host with PFOA and PFOS was also confirmed by ^19F NMR spectra (FIG. 7).

With `O=C(Nc1ccccc1-c1c2nc(c(-c3ccccc3NC(=O)C(F)(F)C(F)(F)C(F)(F)F)c3ccc([nH]3)c(-c3ccccc3NC(=O)C(F)(F)C(F)(F)C(F)(F)F)c3nc(c(-c4ccccc4NC(=O)C(F)(F)C(F)(F)C(F)(F)F)c4ccc1[nH]4)C=C3)C=C2)C(F)(F)C(F)(F)C(F)(F)F` [host (11), α,α,α,α-5,10,15,20-tetra(2-(heptafluorobutanoylamino)phenyl) porphyrin], the K in data set [1] came out at 1.19e+06 M⁻¹. For the same molecule, the “Absorbance @ 650 nm” value was determined as 0.113 in data set [2] (host + one equivalent PFBA in dichloromethane); 0.0469 in data set [2] (host + one equivalent PFDA in dichloromethane); 0.0519 in data set [2] (host + one equivalent PFDoDA in dichloromethane); 0.1009 in data set [2] (host + one equivalent PFHpA in dichloromethane); 0.0967 in data set [2] (host + one equivalent PFHxA in dichloromethane); 0.0473 in data set [2] (host + one equivalent PFNA in dichloromethane). Also, the “Absorbance @ 650 nm” value in data set [2] (host + one equivalent PFOA in dichloromethane) is 0.0977; in data set [2] (host + one equivalent PFPeA in dichloromethane), 0.1125; in data set [2] (host + one equivalent PFUnDA in dichloromethane), 0.0475. For the same molecule, the ΔEHost-PFCA in data set [2] (host vs host + PFBA) was determined as 45.9; in data set [2] (host vs host + PFDA) it was 27.0; in data set [2] (host vs host + PFDoDA), 27.2; in data set [2] (host vs host + PFHpA), 43.2; in data set [2] (host vs host + PFHxA), 44.4; in data set [2] (host vs host + PFNA) it was 26.8. For the same molecule, the ΔEHost-PFCA in data set [2] (host vs host + PFOA) amounted to 40.6; in data set [2] (host vs host + PFPeA) it was 45.8; in data set [2] (host vs host + PFUnDA) it was 30.5. Also, the “ΔE between host and lowest PFOA concentration” value in data set [3] stood at 4. Besides, the “colorimetric response to all nine PFCAs” value in data set [4] is listed as “strong colorimetric response”. Besides, the “1H NMR response to addition of GenX” value in data set [5] is listed as “showed shifts”.
With `O=C(O)C(F)(F)C(F)(F)C(F)(F)C(F)(F)C(F)(F)C(F)(F)C(F)(F)F` [PFOA, Perfluorooctanoic acid], in data set [6], the logKo/w result is “ca. 6.44”.
Turning to `O=C(NC(=O)C(F)(F)C(F)(F)C(F)(F)C(F)(F)C(F)(F)C(F)(F)C(F)(F)F)Nc1ccccc1-c1c2nc(c(-c3ccccc3NC(=O)NC(=O)C(F)(F)C(F)(F)C(F)(F)C(F)(F)C(F)(F)C(F)(F)C(F)(F)F)c3ccc([nH]3)c(-c3ccccc3NC(=O)NC(=O)C(F)(F)C(F)(F)C(F)(F)C(F)(F)C(F)(F)C(F)(F)C(F)(F)F)c3nc(c(-c4ccccc4NC(=O)NC(=O)C(F)(F)C(F)(F)C(F)(F)C(F)(F)C(F)(F)C(F)(F)C(F)(F)F)c4ccc1[nH]4)C=C3)C=C2` [host (10), 5,10,15,20-tetra-(2-ureaphenyl-pentadecafluoro-octanoyl) porphyrin], the Observations result in the data set “Aqueous extraction tests” (sensor 1.1 × 10^−6 M in DCM, H:G 1:500) was “Some colour change,”; in the data set “Aqueous extraction tests” (sensor 2.2 × 10^−3 M in DCM, H:G 4:1) it was “Strong colour change”; in the data set “Aqueous extraction tests” (sensor 2.2 × 10^−4 M in DCM, H:G 2:5) it was “Strong colour change”; in “Aqueous extraction tests” (sensor 2.2 × 10^−5 M in DCM, H:G 1:25), “Strong colour change”. The “colour change by UV-Vis spectrophotometric analysis” value in data set [7] (addition of PFOA) and in data set [7] (addition of PFOS) was “discernible colour change” in each case.
